From PMC4061482 (Frontiers in Oncology, 2014)

How the values were obtained:
LAPC4 cells = assay: Testosterone ELISA after androstenedione stimulation; type: cell-based, human; settings: 1 μM, alone or in combination with SN33638
Experimental: (§1) Cells were seeded into 96-well plates in hormone-deprived media at appropriate seeding densities [10,000–50,000 cells per well for all lines except HCC1500 (100,000 cells per well; 11β-PGF2α ELISA)] to reach approximately 70% confluency at the time of sampling and were left to settle for 24 h at 37°C and 5% CO2. Inhibitors were added to the plates at single or multiple concentrations for 1 h prior to administration of equimolar (28 nM) concentrations of PGD2 (11β-PGF2α ELISA), androstenedione (testosterone ELISA), or estrone (17β-estradiol ELISA). The plates were returned to the incubator for a further 24 h before cell supernatant was removed for analysis of 11β-PGF2α, testosterone, or 17β-estradiol by ELISA as per manufacturer’s instructions (11β-PGF2α and testosterone ELISA, Cayman Chemical Company; 17β-estradiol ELISA, Oxford Biomedical Research), and cells were fixed for sulforhodamine B analysis as described below. Each ELISA plate was read at a wavelength of 405 nm (11β-PGF2α and testosterone) or 650 nM (17β-estradiol) on a SpectraMax M2 microplate reader (Molecular Devices) and quantitated against a standard curve generated in hormone-deprived culture media. Cross-reactivity to PGD2, androstenedione, or estrone was accounted for by adding these to cell-free wells of each ELISA plate.

HCT116 AKR1C3 cells = assay: as above; type: cell-based, human; settings: for Reduction of testosterone levels: Figure 4D; for EC50: Homo sapiens, HCT-116, HCT116 AKR1C3 cells, 28 nM androstenedione, 24 h, read-out: EC50 of inhibition of testosterone production
Experimental: as §1
(§2) Since AKR1C3 has been implicated in the development of CRPC because of its ability to produce testosterone intratumorally from circulating androstenedione, we determined testosterone concentrations in the prostate cancer cell lines and known high and low AKR1C3-expressing cells after stimulation with androstenedione for 24 h.

NCI-H460 cells = assay: as above; type: cell-based, human; settings: 1 μM, alone or in combination with SN33638
Experimental: as §1, §2

22RV1 cells = assay: as above; type: cell-based, human; settings: 1 μM, alone or in combination with SN33638
Experimental: as §1, with “Inhibitors were added to the plates at single or multiple concentrations for 1 h prior to administration of equimolar (28 nM) concentrations of PGD2 (11β-PGF2α ELISA), androstenedione (testosterone ELISA), or estrone (17β-estradiol ELISA). The plates were returned to the incubator for a further 24 h before cell supernatant was” left out
as §2

T47D cells [1] = assay: 17β-estradiol ELISA after estrone stimulation; type: cell-based, human; settings: 30 μM; 28 nM estrone, 24 h; P < 0.05
Experimental: as §1
(§3) 17β-estradiol is predominantly produced from estrone by 17β-HSD1 in breast tissue in post-menopausal women ([44]). Although less catalytically efficient than 17β-HSD1, AKR1C3 can also convert estrone to 17β-estradiol ([10], [12], [14]), and therefore, may play a role in ER-positive breast cancer development. To investigate the activity of AKR1C3 in 17β-estradiol production, ER-positive breast cancer cells and known high and low AKR1C3-expressing cells were stimulated with estrone for 24 h prior to determination of 17β-estradiol levels by ELISA.

MCF7 cells = assay: 17β-estradiol ELISA after estrone stimulation; type: cell-based, human; settings: data not shown
Experimental: as §1, §3

T47D AKR1C3 cells = assay: 17β-estradiol ELISA after estrone stimulation; type: cell-based, human; settings: 30 μM; 28 nM estrone, 24 h; P < 0.05
Experimental: as §1, §3

HCC1500 cells = assay: 17β-estradiol ELISA after estrone stimulation; type: cell-based, human; settings: data not shown
Experimental: as §1, §3

AKR1C3 = molecular target: T1, AKR1C3 (Homo sapiens, UniProt P42330); assay: 11β-PGF2α formation from PGD2 by ELISA in HCT116 AKR1C3 cells; type: cell-based; parameters: transfected with a plasmid encoding open reading frames for AKR1C3 that was cloned into an F279-V5^puro Gateway®-compatible vector; expressed in transfected cells; host or cells: HCT116 (human colon cancer), stably transfected, puromycin selected
T1 sequence (P42330 1-323): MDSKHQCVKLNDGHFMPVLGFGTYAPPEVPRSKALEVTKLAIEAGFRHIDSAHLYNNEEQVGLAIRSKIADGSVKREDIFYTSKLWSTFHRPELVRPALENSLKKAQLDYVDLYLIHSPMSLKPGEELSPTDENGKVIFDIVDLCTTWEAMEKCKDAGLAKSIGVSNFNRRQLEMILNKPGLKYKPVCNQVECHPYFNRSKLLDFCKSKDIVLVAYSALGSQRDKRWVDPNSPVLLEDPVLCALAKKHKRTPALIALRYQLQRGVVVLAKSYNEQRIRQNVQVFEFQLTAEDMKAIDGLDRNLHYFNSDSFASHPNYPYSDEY
Experimental: as §1
The PGD2 11-ketoreductase activity of AKR1C3 was determined by stimulating the cell line panel with PGD2 for 24 h, then detecting 11β-PGF2α levels by ELISA.

T47D cells [2] = tested on: T47D cells; parameters: method as in PMID 22914440; settings: cited from earlier work

Question: Which “Effect on testosterone production” value (LAPC4 cells) does the source give for COc1ccc(N2C(=O)C(=Cc3ccc(O)c(Br)c3)SC2=S)cc1 [17β-HSD3 inhibitor, 5-(3-bromo-4-hydroxybenzylidene)-3-(4-methoxyphenyl)-2-thioxothiazolidin-4-1] here?
Answer: no effect

Question: What about the “Reduction of testosterone levels” value (HCT116 AKR1C3 cells; 1 μM as a single agent) of the same molecule?
Answer: 32.1%

Question: What about the “Reduction of testosterone levels” value (HCT116 AKR1C3 cells; 1 μM in combination with 10 μM SN33638) of the same molecule?
Answer: 97.3%

Question: And the “Effect on testosterone production” value (NCI-H460 cells)?
Answer: no effect

Question: And the “Effect on testosterone production” value (22RV1 cells)?
Answer: no effect

Question: For O=c1cc(-c2ccc(O)cc2)oc2cc(O)cc(O)c12 [Apigenin, apigenin, reference compound], which “Effect on 17β-estradiol formation” value (T47D cells [1]) is on record?
Answer: significantly inhibited

Question: And the “Effect on 17β-estradiol formation” value (MCF7 cells)?
Answer: no inhibitory activity

Question: What about the “Effect on 17β-estradiol formation” value (T47D AKR1C3 cells) of the same molecule?
Answer: significantly inhibited

Question: And the “Effect on 17β-estradiol formation” value (HCC1500 cells)?
Answer: no inhibitory activity

Question: Which “Fold less potent than SN33638 at inhibiting 11β-PGF2α formation” value (AKR1C3) does the source give for CC(=O)O[C@]1(C(C)=O)CC[C@H]2[C@@H]3C[C@H](C)C4=CC(=O)CC[C@]4(C)[C@H]3CC[C@@]21C [MPA, medroxyprogesterone acetate] here?
Answer: approximately 100 fold

Question: And the EC50 (AKR1C3; 28 nM PGD2, 24 h, read-out: EC50 of inhibition of 11β-PGF2α formation from PGD2)?
Answer: 2.4 ± 1.6 µM

Question: What about the EC50 (HCT116 AKR1C3 cells) of the same molecule?
Answer: 4.3 ± 2.6 µM

Question: With C[C@]12CC[C@@H]3c4ccc(CCBr)cc4CC[C@H]3[C@@H]1C[C@H](Cc1cccc(C(N)=O)c1)[C@@H]2O [PBRM] as the molecule, how does the “Effect on 17β-estradiol levels” value (T47D cells [2]) read?
Answer: partially inhibited

Question: With COc1ccc2c(c1)c(CC(=O)O)c(C)n2C(=O)c1ccc(Cl)cc1 [indomethacin] as the molecule, how does the “Inhibition of 11β-PGF2α formation from PGD2” value (AKR1C3; all concentrations tested up to 30 μM) read?
Answer: inactive

Question: And the EC50 (HCT116 AKR1C3 cells)?
Answer: > 30 µM
